Measurements taken from patent US20240247080A1, “GLP1/GIP/NPY2 RECEPTOR TRIPLE AGONISTS” (Boehringer Ingelheim International GmbH, priority 2022, published 2024).
pEC50: −log10 of the molar value. Read-outs that look alike come from different tables or passages of the source. Starred links: 1 amine or outer side, 2 acyl side, 3 side chain; linkers in the order of their positions; H or OH if unused. Non-standard residues stand in square brackets, D forms with d. Groups on a side chain read outwards from the residue. *: point of attachment. C18 diacid = O=C(O)CCCCCCCCCCCCCCCCC(=O)*; γGlu = O=C(O)[C@H](CCC(=O)[*:2])N[*:1]; AEEA = NCCOCCOCC(=O)O; Aib = CC(C)(N)C(=O)O

Legend:
hNPY2R = biological target: T1, hNPY2R (Homo sapiens, UniProt P49146); experiment: hNPY2R CreLuc reporter gene assay in 0.5% and 100% plasma; type: cell-based; conditions: CreLuc reporter gene assay
T1 construct: expressed in transfected cells; host or cells: HEK-293 cells carrying a CRE-luciferase reporter gene
T1 sequence (P49146 1-381): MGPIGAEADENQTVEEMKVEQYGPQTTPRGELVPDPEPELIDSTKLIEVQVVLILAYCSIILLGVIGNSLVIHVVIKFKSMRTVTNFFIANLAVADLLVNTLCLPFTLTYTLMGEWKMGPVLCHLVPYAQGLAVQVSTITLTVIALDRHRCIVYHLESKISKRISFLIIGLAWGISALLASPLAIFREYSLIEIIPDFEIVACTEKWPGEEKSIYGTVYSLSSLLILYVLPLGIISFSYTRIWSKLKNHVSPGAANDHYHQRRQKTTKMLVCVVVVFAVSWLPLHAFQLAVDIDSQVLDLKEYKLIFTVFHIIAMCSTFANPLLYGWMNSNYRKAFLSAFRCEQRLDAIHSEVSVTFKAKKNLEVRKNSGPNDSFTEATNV
Summary of the method: (§1)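 HEK cells (GLP-1R, NPY2R) or CHO cells (GIPR) carrying a CRE-luciferase reporter, incubated 4 h at 37 °C with peptides in HBSS/20 mM HEPES pH 7.4 plus 0.5% human plasma, or in 100% plasma. Luminescence read; EC50 from 8-point variable-slope sigmoid fits.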

[1] = Mouse PK after intravenous application; type: in vivo; conditions: plasma, mean residence time, intravenous 30-60 nmol/kg, male NMRI mice
Summary of the method: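 Male NMRI mice (30–40 g) received 30-60 nmol/kg peptide by tail-vein injection, dissolved in 50 mM phosphate buffer (pH 7.4)/3.5% mannitol. Saphenous blood was sampled up to 56 hours post-dose and EDTA plasma analysed by LC-MS. PK parameters came from non-compartmental analysis.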

hGLP1R = biological target: T2, hGLP1R (Homo sapiens, UniProt P43220); experiment: hGLP1R CreLuc reporter gene assay in 0.5% and 100% plasma; type: cell-based; conditions: CreLuc reporter gene assay, 0.5% human plasma; read-out: hGLP1R 0.5% hP
T2 construct: expressed in transfected cells; host or cells: HEK-293 cells carrying a CRE-luciferase reporter gene
T2 sequence (P43220 24-463): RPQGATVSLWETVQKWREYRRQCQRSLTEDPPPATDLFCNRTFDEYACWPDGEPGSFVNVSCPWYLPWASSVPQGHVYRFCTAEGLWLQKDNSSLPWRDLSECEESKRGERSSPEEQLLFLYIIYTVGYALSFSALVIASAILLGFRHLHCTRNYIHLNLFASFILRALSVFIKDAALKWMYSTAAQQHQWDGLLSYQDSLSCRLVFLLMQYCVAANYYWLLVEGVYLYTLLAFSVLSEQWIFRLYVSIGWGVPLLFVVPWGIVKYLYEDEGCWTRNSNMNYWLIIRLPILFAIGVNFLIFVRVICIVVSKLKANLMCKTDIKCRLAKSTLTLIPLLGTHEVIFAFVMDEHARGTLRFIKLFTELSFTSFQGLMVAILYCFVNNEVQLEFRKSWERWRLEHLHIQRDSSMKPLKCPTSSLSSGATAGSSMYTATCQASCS
Summary of the method: as §1

[2] = Effect on acute food intake in normal NMRI mice; type: in vivo; conditions: 30 nmol/kg subcutaneously once, normalized to vehicle group, male NMRI mice
Procedure: Example 4: Effect on Acute Food Intake in Normal NMRI Mice
Male NMRI mice were obtained from Janvier (Janvier Labs, France) or from Charles River (Charles River Research Models & Services Germany GmbH) at the age of 3 weeks. The animals get a microchip (Datamars, Slim Microchip T-SL) for individual identification after delivery. They were housed with 4 mice per cage under a 12/12 dark-light cycle, light off at 3 p.m. Room temperature was controlled to 21° C. +/−1° C. and humidity 60%+/−20%. Mice had ad libitum access to regular rodent chow (KLIBA Nafag 3040 or Altromin 1324, Brogaarden, Denmark) and tap water.
Latest transfer into the HM2-System of MBRose, Denmark (real-time monitoring system of food- and water intake) of the animals 5 days before study start, to allow acclimatization to experimental conditions. As the animals were uniquely identified with the microchips, each individual animal was identified by its own microchip upon entry and exit from the food channel via antennae. Randomization of the mice for each study group (n=8; age earliest 6 weeks old) was based on food intake (middle of last three days 24 h-Intervall) and bodyweight directly before start of the study. A vehicle treated (50 mM phosphate buffer pH7.4 with 3.5% Mannitol) group was included in each experiment. To have the same nutrition standard for each animal the food access was locked eight hours before dark phase. One hour before night, the animals were once treated subcutaneously with the test peptide. Food intake was reported hourly for a period of 24 h.

hGIPR = biological target: T3, hGIPR (Homo sapiens, UniProt P48546); experiment: hGIPR CreLuc reporter gene assay in 0.5% and 100% plasma; type: cell-based; conditions: CreLuc reporter gene assay
T3 construct: expressed in transfected cells; host or cells: CHO cells carrying a CRE-luciferase reporter gene
T3 sequence (P48546 22-466): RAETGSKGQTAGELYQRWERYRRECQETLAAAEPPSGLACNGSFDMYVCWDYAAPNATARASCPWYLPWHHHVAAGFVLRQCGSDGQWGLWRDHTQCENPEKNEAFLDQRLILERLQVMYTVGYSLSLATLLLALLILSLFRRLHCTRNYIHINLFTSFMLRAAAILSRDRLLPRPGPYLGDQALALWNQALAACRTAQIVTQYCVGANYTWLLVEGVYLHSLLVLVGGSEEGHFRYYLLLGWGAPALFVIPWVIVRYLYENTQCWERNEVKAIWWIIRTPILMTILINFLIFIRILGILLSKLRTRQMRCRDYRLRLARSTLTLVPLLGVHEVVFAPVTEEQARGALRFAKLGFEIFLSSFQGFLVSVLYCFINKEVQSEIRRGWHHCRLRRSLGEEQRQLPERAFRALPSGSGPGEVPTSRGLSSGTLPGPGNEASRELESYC
Summary of the method: as §1

[3] = 100% human plasma, read-out: hNPY2R 100% hP
[4] = 0.5% human plasma, read-out: hGIPR 0.5% hP
[5] = 100% human plasma, read-out: hGIPR 100% hP
[6] = 0.5% human plasma, read-out: hNPY2R 0.5% hP

Row | Compound | pEC50 (hNPY2R; [3]) | MRT [1] [h] | pEC50 (hGLP1R) | Acute Food Intake 24 h 30 nmol/kg [% CTL] [2] [% CTL] | pEC50 (hGIPR; [4]) | pEC50 (hGIPR; [5]) | pEC50 (hNPY2R; [6])
1 | CC[C@H](C)[C@H](NC(=O)[C@H](CC(C)C)NC(=O)[C@H](Cc1c[nH]c2ccccc12)NC(=O)[C@H](CCC(N)=O)NC(=O)[C@@H](NC(=O)[C@H](Cc1ccccc1)NC(=O)[C@H](C)NC(=O)C(C)(C)NC(=O)[C@H](CCC(N)=O)NC(=O)[C@H](C)NC(=O)[C@H](CCC(N)=O)NC(=O)[C@H](CCCCN)NC(=O)[C@H](CCC(=O)O)NC(=O)[C@H](CC(C)C)NC(=O)C(C)(C)NC(=O)[C@@H](NC(=O)[C@H](CO)NC(=O)[C@H](Cc1ccc(O)cc1)NC(=O)[C@H](CC(=O)O)NC(=O)[C@H](CO)NC(=O)[C@@H](NC(=O)[C@H](Cc1ccccc1)NC(=O)[C@@H](NC(=O)CNC(=O)[C@H](CCC(=O)O)NC(=O)C(C)(C)NC(=O)[C@@H](N)Cc1ccc(O)cc1)[C@@H](C)O)[C@@H](C)O)[C@@H](C)CC)C(C)C)C(=O)N[C@@H](CCCCNC(=O)[C@@H](N)CCCCNC(=O)CC[C@H](NC(=O)CC[C@H](NC(=O)CC[C@H](NC(=O)CC[C@H](NC(=O)CC[C@H](NC(=O)CC[C@H](NC(=O)CCCCCCCCCCCCCCCCC(=O)O)C(=O)O)C(=O)O)C(=O)O)C(=O)O)C(=O)O)C(=O)O)C(=O)NCC(=O)NCC(=O)N1CCC[C@H]1C(=O)N[C@@H](CO)C(=O)N[C@@H](CCC(=O)O)C(=O)NCC(=O)N[C@@H](C)C(=O)N[C@@H](CO)C(=O)N[C@@H](CC(C)C)C(=O)N[C@@H](CCCNC(=N)N)C(=O)N[C@@H](Cc1c[nH]cn1)C(=O)N[C@@H](Cc1ccc(O)cc1)C(=O)N[C@@H](Cc1ccc(O)cc1)C(=O)N[C@@H](CC(N)=O)C(=O)N[C@@H](Cc1c[nH]c2ccccc12)C(=O)N[C@@H](CC(C)C)C(=O)N[C@H](C(=O)N[C@@H](CCCNC(=N)N)C(=O)N[C@@H](CCC(N)=O)C(=O)N[C@@H](CCCNC(=N)N)C(=O)N[C@@H](Cc1ccc(O)cc1)C(N)=O)[C@@H](C)O [Compound 265, Y-Aib-E-G-T-F-T-S-D-Y-S-I-Aib-L-E-K-Q-A-Q-Aib-A-F-V-Q-W-L-I-K(1,3)-GGPSEGASLRHYYNWLTRQRY-NH2.C18DA-gGlu-gGlu-gGlu-gGlu-gGlu-gGlu-eLys(1,2)] | 7.64 | 8.5 | 10.00 | 50 | 9.41 | 9.10 | –
2 | CC[C@H](C)[C@H](NC(=O)[C@H](CC(C)C)NC(=O)[C@H](Cc1c[nH]c2ccccc12)NC(=O)[C@H](CCC(N)=O)NC(=O)[C@@H](NC(=O)[C@H](Cc1ccccc1)NC(=O)[C@H](C)NC(=O)C(C)(C)NC(=O)[C@H](CCC(N)=O)NC(=O)[C@H](C)NC(=O)[C@H](CCC(N)=O)NC(=O)[C@H](CCCCN)NC(=O)[C@H](CCC(=O)O)NC(=O)[C@H](CC(C)C)NC(=O)C(C)(C)NC(=O)[C@@H](NC(=O)[C@H](CO)NC(=O)[C@H](Cc1ccc(O)cc1)NC(=O)[C@H](CC(=O)O)NC(=O)[C@H](CO)NC(=O)[C@@H](NC(=O)[C@H](Cc1ccccc1)NC(=O)[C@@H](NC(=O)CNC(=O)[C@H](CCC(=O)O)NC(=O)C(C)(C)NC(=O)[C@@H](N)Cc1ccc(O)cc1)[C@@H](C)O)[C@@H](C)O)[C@@H](C)CC)C(C)C)C(=O)N[C@@H](CCCCNC(=O)[C@@H](N)CCCCNC(=O)CC[C@H](NC(=O)CC[C@H](NC(=O)CC[C@H](NC(=O)CC[C@H](NC(=O)CC[C@H](NC(=O)CC[C@H](NC(=O)CCCCCCCCCCCCCCCCCCC(=O)O)C(=O)O)C(=O)O)C(=O)O)C(=O)O)C(=O)O)C(=O)O)C(=O)NCC(=O)NCC(=O)N1CCC[C@H]1C(=O)N[C@@H](CO)C(=O)N[C@@H](CCC(=O)O)C(=O)NCC(=O)N[C@@H](C)C(=O)N[C@@H](CO)C(=O)N[C@@H](CC(C)C)C(=O)N[C@@H](CCCNC(=N)N)C(=O)N[C@@H](Cc1c[nH]cn1)C(=O)N[C@@H](Cc1ccc(O)cc1)C(=O)N[C@@H](Cc1ccc(O)cc1)C(=O)N[C@@H](CC(N)=O)C(=O)N[C@@H](Cc1c[nH]c2ccccc12)C(=O)N[C@@H](CC(C)C)C(=O)N[C@H](C(=O)N[C@@H](CCCNC(=N)N)C(=O)N[C@@H](CCC(N)=O)C(=O)N[C@@H](CCCNC(=N)N)C(=O)N[C@@H](Cc1ccc(O)cc1)C(N)=O)[C@@H](C)O [Compound 220, Y-Aib-E-G-T-F-T-S-D-Y-S-I-Aib-L-E-K-Q-A-Q-Aib-A-F-V-Q-W-L-I-K(1,3)-GGPSEGASLRHYYNWLTRQRY-NH2.C20DA-gGlu-gGlu-gGlu-gGlu-gGlu-gGlu-eLys(1,2)] | 7.37 | 12.1 | 9.77 | 45 | 9.54 | 8.74 | 7.99
3 | H-Y[Aib]EGTFTSDYSI[Aib]LEKQAQ[Aib]EFVEWLIK([AEEA-AEEA-γGlu-γGlu-γGlu-γGlu-C18 diacid])GGPSSGASLRHYYNWLTRQRY-NH2 [Compound 145, Y-Aib-E-G-T-F-T-S-D-Y-S-I-Aib-L-E-K-Q-A-Q-Aib-E-F-V-E-W-L-I-K(1,3)-GGPSSGASLRHYYNWLTRQRY-NH2.C18DA-gGlu-gGlu-gGlu-gGlu-OEG-OEG(1,2)] | – | 8 | 9.51 | 43 | 9.55 | 8.91 | 7.92
